Measured values reported in patent US10487058B2, “Cyclopropyl unsaturated quinoline compound used as leukotriene receptor antagonist and applications thereof” (Guangdong Moltech Pharma Co. Ltd, priority 2015, dated 2019).

Key:
[1] = test system: histamine and acetylcholine induced asthma guinea pigs; test: Anti-asthmatic effect of CS-0090-2 on histamine and acetylcholine induced asthma guinea pigs; format: in vivo, guinea pig
guinea pig asthma models = test: Anti-asthmatic effect of CS-0090-1 on guinea pig asthma models (histamine/acetylcholine atomization); format: in vivo
[2] = test system: histamine and acetylcholine induced asthma guinea pigs; test: Anti-asthmatic effect of CS-0090-4 on histamine and acetylcholine induced asthma guinea pigs; format: in vivo, guinea pig
Description: 0.2 g choline and 0.01 g histamine were weighed and put into beakers respectively, and then respectively each beaker were added with 10 ml distilled water and blended to homogeneity.
The healthy guinea pigs with body weight of 180 to 220 g were taken and placed in a closed glass bell jar one by one firstly; after the guinea pigs became quiet, an atomization apparatus was started to spray an asthma-induced medical liquid (a solution of 2% acetylcholine chloride and 0.1% histamine phosphate mixed in equal volume) until the guinea pigs tumbled, then the pulverization was stopped, and the asthma latent period (time period from the beginning of pulverization to onset of asthma and dyspnea, till convulsions and tumble) was observed, and qualified animals having a asthma latent period ≤120 s were screened.
The qualified guinea pigs screened were randomly divided into four groups, which were a high-dosage group, a median-dosage group, a low-dosage group, and a positive control group. The guinea pigs in each group were subjected to oral gavage administration continuously for 7 days with a dosage of 1 ml/100 g. The induced asthma latent period was determined in 1 h after administration on the last day.

KM mice = conditions: oral gavage three times in one day, observed 7 days
[3] = 3 mg·kg^−1 group, self-control baseline

CC(C)(O)c1ccccc1CC[C@@H](SCC1(CC(=O)O)CC1)c1cccc(/C=C/c2ccc3ccc(Cl)cc3n2)c1 [Montelukast]
Induced asthma latent period (s) within 6 min Before administration [1, 3]: 48.2 ± 4.6 s
Induced asthma latent period (s) within 6 min After administration ([1]; 3 mg·kg^−1 oral gavage 7 days, 1 h after last dose, capped at 360 s): 59.8 ± 7.1 s
Induced asthma latent period before administration (guinea pig asthma models; [3]): 48.17 ± 4.62 s
Induced asthma latent period after administration (guinea pig asthma models; 3 mg·kg^−1 oral gavage once a day for 7 days, 1 h after last dose, capped at 6 min): 63.00 ± 7.13 s
Asthma latent period before administration [2, 3]: 48.17 ± 4.62
Asthma latent period after administration ([2]; 3 mg·kg^−1 oral gavage 7 days, 1 h after last dose): 59.83 ± 7.08
maximum dosage (KM mice): 2280 mg/kg
